Like-named read-outs stand apart in the source and are kept apart here.
Legend:
[1] = set-up: method as in PMID 16158943; details: animal models, compared to DOX and DRB; cited from earlier work
[2] = Cytotoxicity assay (MTT, inhibition of cell proliferation); format: cell-based, rat; details: rat
Description: (§1) The cytotoxic activity of the drugs was assayed by measuring their inhibitory effects on H9c2(2-1) cell proliferation. To measure the cytotoxicity of doxorubicin, daunorubicin, and their analogs, the tetrazolium dye method was used. Cells were seeded at 1 × 10^4 cells/well in 48-well plates. After 24 h, the cells were incubated with different concentrations of anthracyclines for 72 h in triplicate in a final volume of 1 ml. Then, 50 μl of a sterile aqueous solution of 3-[4,5-dimethylthiazol-2-yl]-2,5-diphenyl-tetrazolium bromide (5 mg/ml) (Sigma-Aldrich) was added to each well for an additional 3 h. The blue formazan precipitate was dissolved in DMSO (Sigma-Aldrich), and the absorbance of solutions was measured at 540 nm. For each experiment, determinations were performed in three replicates. The IC50 values (the anthracycline concentration effective at inhibiting cell growth after exposure to the drug for 72 h) were read from survival curves, which were fitted to an exponential equation using Xact v. 7.2, a statistical software tool by SciLab (Germany).

[3] = tested on: H9c2(2-1) rat cardiomyoblasts; assay: as above; format: cell-based; details: 72 h
Description: as §1

[4] = tested on: H9c2(2-1) cells; assay: Cell cycle analysis by flow cytometry; format: cell-based, rat; details: for Cell cycle arrest pattern: 24 h treatment at IC50, data not shown; for Cells in G2/M phase / Cells in S phase / Cells in G0/G1 phase: 24 h treatment at equitoxic concentration (IC50); for Cells in G2/M phase: untreated control 8.7 %; for Cells in S phase: untreated control 11 %; for Cells in G0/G1 phase: untreated control 80.1 %
Description: The cell cycle was analyzed by flow cytometry using a Becton-Dickinson FACSCanto II flow cytometer. H9c2(2-1) cells were seeded at 1 × 10^4 cells/cm^2 in 10 cm^2 culture flasks. After the cells were allowed to grow for 24 h, the medium was replaced and the cells were treated with an equitoxic anthracycline concentration corresponding to IC50. Treatment was performed for 24 h, and then the cells were washed in PBS and trypsinized. After the cells were washed in PBS again, they were fixed in 70 % ethanol and incubated for 1 h on ice. Fixed cells were washed twice in PBS, resuspended in commercially available propidium iodide staining solution and then subjected to flow cytometric assay. The percentages of H9c2(2-1) cells present in G1, S, and G2 phases of the cell cycle after drug treatment were analyzed using FACSDiva 6.1 software.

[5] = tested on: double-stranded calf thymus DNA; assay: Ethidium bromide displacement assay (affinity to DNA); format: binding; details: for Kapp (apparent DNA binding constant): ethidium bromide displacement, mean of three ± S.D.; for Kapp relative to parent drug (times lower): vs DOX or DRB
Description: The binding of the anthracyclines to double-stranded calf thymus DNA was tested by the ethidium bromide displacement assay. This method is based on the competition between the tested compound and ethidium bromide for DNA intercalation sites. The fluorescence intensity of ethidium bromide increases upon DNA binding. Addition of a compound displacing intercalated ethidium bromide leads to quenching of the fluorescence of the DNA/ethidium bromide complex. The percentage of initial fluorescence was plotted against the concentration of the added compound, and the IC50 value was read. The IC50 value is defined as the concentration of added compound required to reduce the fluorescence of the DNA/ethidium bromide complex to 50 %. IC50 values were then used to calculate the apparent binding constants of the anthracyclines to DNA.

[6] = tested on: H9c2(2-1) cells; assay: Cellular uptake (fluorimetric, ethanol/HCl extraction); format: cell-based, rat; details: 10 μM, 1 h; for Accumulation relative to parent drug (times higher): vs DOX or DRB
Description: Anthracycline uptake was estimated by fluorimetric measurements after the drugs were extracted with an ethanol/HCl mixture as described by Riganti et al.. H9c2(2-1) cells (2 × 10^5) were seeded onto 40 × 11 mm tissue culture dishes for 24 h. Then, the cells were treated in growth medium with 10 μM anthracycline solution at 37 °C for 1 h. After this time, the cells were gently scraped and suspended in 5 ml of ice-cold PBS. The cell suspension aliquots were centrifuged at 1500 rpm for 5 min and then washed twice in ice-cold PBS. Next, cell pellets were collected and resuspended in 2 ml of a 1:1 mixture of ethanol:0.3 M HCl, and the fluorescence intensities of these suspensions were measured at 20 °C using a Perkin-Elmer LS 55 spectrofluorimeter. The optimal excitation and emission wavelengths were 485 and 590 nm, respectively. To estimate the drug concentrations, calibration curves in the concentration range of 0.01–0.5 μM were prepared. Because the fluorescence was quenched slightly in the presence of cells, each point of the calibration curves was measured in the presence of 2 × 10^5 cells suspended in a mixture of ethanol/HCl.

[7] = H9c2(2-1) rat cardiomyoblast cells, H9c2(2-1) cells, 72 h exposure, MTT, mean of six experiments ± S.D., read-out: Cytotoxicity IC50
[8] = H9c2(2-1) cells, 72 h exposure, MTT, mean of six experiments ± S.D., read-out: Cytotoxicity IC50
[9] = H9c2(2-1), parent DOX or DRB vs analog

Cellular accumulation higher than DOXM [6]	SMILES	Cardiotoxicity in vivo [1]	IC50 at 72 h [2] [nM]	Cytotoxic activity of the parent compound relative to this analog (times higher) ([3]; rat) [times]	Cell cycle arrest pattern [4]	Kapp (apparent DNA binding constant) [5]	Kapp relative to parent drug (times lower) [5]	IC50 at 72 h [2, 7] [nM]	Cells in G2/M phase [4] [%]	Cells in S phase [4] [%]	Cells in G0/G1 phase [4] [%]	IC50 at 72 h [2, 8] [nM]	Cytotoxic activity of the parent compound relative to this analog (times higher) [3, 9]	Accumulation relative to DOXM (times higher) [6] [times]	Accumulation relative to parent drug (times higher) [6]	Accumulation relative to other tested compounds (times higher) ([6]; other than parent DRB)
	COc1cccc2c1C(=O)c1c(O)c3c(c(O)c1C2=O)C[C@@](O)(C(C)=O)C[C@@H]3O[C@H]1C[C@H](N=CN2CCOCC2)[C@H](O)[C@H](C)O1 [DRBM]	lower cardiotoxicity	626 ± 18	8	S phase arrest	0.64 ± 0.03 × 10^5 [M^-1]	approximately 20 times									
approximately 30%	COc1cccc2c1C(=O)c1c(O)c3c(c(O)c1C2=O)C[C@@](O)(C(=O)CO)C[C@@H]3O[C@H]1C[C@H](N)[C@H](O)[C@H](C)O1 [DOX, doxorubicin, reference compound]	most cardiotoxic				18.1 ± 0.41 × 10^5 [M^-1]		35 ± 4	40.6	9.0	50.4					
	COc1cccc2c1C(=O)c1c(O)c3c(c(O)c1C2=O)C[C@@](O)(C(C)=O)C[C@@H]3O[C@H]1C[C@H](N)[C@H](O)[C@H](C)O1 [DRB, daunorubicin, reference compound]	most cardiotoxic			G2/M arrest	11.7 ± 0.22 × 10^5 [M^-1]		76 ± 7								
	COc1cccc2c1C(=O)c1c(O)c3c(c(O)c1C2=O)C[C@@](O)(C(=O)CO)C[C@@H]3O[C@H]1C[C@H](N=CN2CCOCC2)[C@H](O)[C@H](C)O1 [DOXM]	lower cardiotoxicity				0.90 ± 0.12 × 10^5 [M^-1]	approximately 20 times		13.0	33.5	53.5	138 ± 18	approximately 4 times			
	COc1cccc2c1C(=O)c1c(O)c3c(c(O)c1C2=O)C[C@@](O)(C(=O)CO)C[C@@H]3O[C@H]1C[C@H](N=CN2CCCCCC2)[C@H](O)[C@H](C)O1 [DOXH]	lower cardiotoxicity				7.30 ± 0.14 × 10^5 [M^-1]	2.5–2.8 times		13.5	36.4	50.1	87 ± 7	~2.5 times	~2	1.5 times	
	COc1cccc2c1C(=O)c1c(O)c3c(c(O)c1C2=O)C[C@@](O)(C(C)=O)C[C@@H]3O[C@H]1C[C@H](N=CN2CCCCCC2)[C@H](O)[C@H](C)O1 [DRBH]	lower cardiotoxicity			S phase arrest	4.1 ± 0.08 × 10^5 [M^-1]	2.5–2.8 times					172 ± 14	2 times		more than 1.5 times	5–7 times
